Where “and” joins values, the source holds several entries; their conditions need not be identical. Identical values can stand only once.
Legend:
[1] = system: intraocular pressure of rabbits showing normal baseline intraocular pressure; assay: Intraocular pressure in rabbits with normal intraocular pressure after topical instillation; type: in vivo, rabbit (Vienna Blue, pigmented); details: 50 μl eye-drops; 0.050% flunarizine, equimolar comparators, 0.5% timolol
Method: The effects of the agent of the invention on the intraocular pressure of rabbits showing normal baseline intraocular pressure were evaluated in comparison with the action of a placebo, and with that of various other calcium channel blocking agents. Female pigmented rabbits of the Vienna Blue strain were used (supplied by Charles River Italiana, of Calco (CO)). The age of the animals at the time of starting the experimentation was 9 weeks, and their weight was 2.0-2.5 kg.
The choice of a species with pigmented iris is due to the fact that the latter represents a reliable model for the evaluation of possible modifications of the intraocular pressure caused by the products under test. The strain chosen is genetically defined, so as to limit to a minimum the variability of the biological characteristics between one animal and the other.
The animals were kept in rooms maintained under constant and controlled conditions of temperature and humidity, illuminated for 12 hours a day with artificial light and with continuous renovation of the air. The feed consisted of a standard diet having a constant and known composition, and both feed and water were available ad libitum during the whole period of the test. The rabbits were stabled for 21 days before starting the test, so as to allow a sufficient acclimatation and to suitably evaluate the health conditions of the rabbits. Each experimental group consisted of 4 animals, which were allotted to the treatment groups in a randomised way.
Each different group of animals received, by instillation in the right conjunctival fornix, 50 μl of the following products:
The weight concentrations of the various agents under test are chosen so as to correspond to the same molar concentration.
The pressure in the treated eye was measured by flattening tonometer (TonopenXL®, Mentor), 15 minutes before the instillation of the eyerops (time 0) and then 30, 60, 90, 120, 180 and 240 minutes after. As a local anaesthetic, 5 minutes before carrying out each measurement 25 μl of a commercial ophthalmic solution containing 0.4% oxybuprocaine hydrochloride (Novesine®, Sandoz) was instilled. To carry out the measurement the rabbits were placed in a suitably designed cage, that prevents any sudden movement of the animal under test.
For each animal and at each of the times listed above the average of three subsequent measurements was calculated and recorded, each one said measurements being made after 1 minute from the previous one. The intraocular pressure values at the various times were compared with the values obtained before the treatment, by means of the Student's “t” test. The comparisons between different groups were made by processing the data by the variance analysis (ANOVA) and, where possible, by the Student's “t” test for the comparison of two different experimental groups. Values of p<0.05 were considered to be statistically significant.

[2] = system: intraocular pressure of rabbits with ocular hypertension; assay: Intraocular pressure in rabbits with ocular hypertension induced by α-chymotrypsin; type: in vivo, rabbit (Vienna Blue, pigmented); details: for Intraocular pressure (mmHg) at the time (min): 30, average ± S.D. / Intraocular pressure (mmHg) at the time (min): 60, average ± S.D. / Intraocular pressure (mmHg) at the time (min): 90, average ± S.D. / Intraocular pressure (mmHg) at the time (min): 120, average ± S.D. / Intraocular pressure (mmHg) at the time (min): 180, average ± S.D. / Intraocular pressure (mmHg) at the time (min): 240, average ± S.D. / Intraocular pressure (mmHg) at the time (min): 0, average ± S.D. / Intraocular pressure (mmHg) at the time (min): 30 / Intraocular pressure (mmHg) at the time (min): 60 / Intraocular pressure (mmHg) at the time (min): 90 / Intraocular pressure (mmHg) at the time (min): 120 / Intraocular pressure (mmHg) at the time (min): 180 / Intraocular pressure (mmHg) at the time (min): 240 / Intraocular pressure (mmHg) at the time (min): 0: Table 4, 50 μl; for Intraocular pressure (mmHg) at the time (min): 30, average ± S.D. / Intraocular pressure (mmHg) at the time (min): 60, average ± S.D. / Intraocular pressure (mmHg) at the time (min): 90, average ± S.D. / Intraocular pressure (mmHg) at the time (min): 120, average ± S.D. / Intraocular pressure (mmHg) at the time (min): 180, average ± S.D. / Intraocular pressure (mmHg) at the time (min): 240, average ± S.D. / Intraocular pressure (mmHg) at the time (min): 0, average ± S.D.: average ± S.D. of 4 rabbits; for Intraocular pressure (mmHg) at the time (min): 30, average ± S.D. / Intraocular pressure (mmHg) at the time (min): 30: 30 min after instillation; for Intraocular pressure (mmHg) at the time (min): 60, average ± S.D. / Intraocular pressure (mmHg) at the time (min): 60: 60 min after instillation; for Intraocular pressure (mmHg) at the time (min): 90, average ± S.D. / Intraocular pressure (mmHg) at the time (min): 90: 90 min after instillation; for Intraocular pressure (mmHg) at the time (min): 120, average ± S.D. / Intraocular pressure (mmHg) at the time (min): 120: 120 min after instillation; for Intraocular pressure (mmHg) at the time (min): 180, average ± S.D. / Intraocular pressure (mmHg) at the time (min): 180: 180 min after instillation; for Intraocular pressure (mmHg) at the time (min): 240, average ± S.D. / Intraocular pressure (mmHg) at the time (min): 240: 240 min after instillation; for Intraocular pressure (mmHg) at the time (min): 0, average ± S.D. / Intraocular pressure (mmHg) at the time (min): 0: time 0 = 15 min before instillation (baseline); for Intraocular pressure (mmHg) at the time (min): 30 / Intraocular pressure (mmHg) at the time (min): 60 / Intraocular pressure (mmHg) at the time (min): 90 / Intraocular pressure (mmHg) at the time (min): 120 / Intraocular pressure (mmHg) at the time (min): 180 / Intraocular pressure (mmHg) at the time (min): 240 / Intraocular pressure (mmHg) at the time (min): 0: individual rabbit, right eye
Method: Rabbits of the same type as those described in the previous section were used for the following tests.
In the rabbit, the injection of this enzyme in the posterior chamber causes, after one month from the administration, an effect of ocular hypertension.
At the end of the quarantine period the rabbits were anaesthetised by intramuscular administration of ketamine hydrochloride and xylazine hydrochloride (RBI). The right eye was gently pushed outwardly after instilling 25 μl of Novesine® eye-drops, containing oxybuprocaine as an anaesthetic; then, a sterile solution of σ-chymotrypsin (SIGMA, Milan; 150 units in 100 μl of physiologic sterile solution) was injected in the posterior chamber of the right eye by means of a 30G sterile needle. After the administration of the enzyme, the eye was thoroughly washed with physiologic sterile solution in order to remove any traces of α-chymotrypsin which could damage the ocular tissues. Then, 2 drops of a commercial ophthalmic antibiotic solution (Colbiocin®, SIFI S.p.A., containing chloramphenicol, rolitetracycline, colistin methanesulphonate) were instilled. The treatment was carried out 3 times a day (at 8.00 a.m., 12.00 a.m. and 6.00 p.m.) for one week after the administration of α-chymotrypsin. The rabbits were employed in the tests after one month from the induction of ocular hypertension by means of the enzyme.
The rabbits, divided also in this case in groups of 4 animals, were treated by instillation of 50 μl of the product under test in the right conjunctival fornix.
The intraocular pressure in the treated eye was measured, according to the same procedure as in the previous tests, 15 minutes before the instillation of the eye-drops and 30, 60, 90, 120, 180 and 240 minutes after. The values obtained were statistically analysed according to the criteria mentioned in the foregoing.
The experimental conditions were exactly the same as before.

[3] = eye-drops with 0.010% flunarizine
[4] = eye-drops with 0.050% flunarizine
[5] = eye-drops with 0.100% flunarizine

In the case of `Fc1ccc(C(c2ccc(F)cc2)N2CCN(C/C=C/c3ccccc3)CC2)cc1` [flunarizine], the “Effect on intraocular pressure in rabbits with normal pressure, in words” value [1] is reported as “better performance in lowering the intraocular pressure than timolol alone”, the “Effect on intraocular pressure in rabbits with ocular hypertension, in words” value ([2]; 50 μl eye-drops, 0.050% flunarizine, equimolar comparators, 0.5% timolol) is reported as “effectiveness comparable to or better than that of timolol alone” and the “Intraocular pressure (mmHg) at the time (min): 30, average ± S.D.” value (from here on “Intraocular pressure … 30, average ± S.D.”) [2, 3] is reported as 55.0 ± 5.35 mmHg. The “Intraocular pressure (mmHg) at the time (min): 60, average ± S.D.” value (from here on “Intraocular pressure … 60, average ± S.D.”) [2, 3] was 52.7 ± 5.18 mmHg, the “Intraocular pressure (mmHg) at the time (min): 90, average ± S.D.” value (from here on “Intraocular pressure … 90, average ± S.D.”) [2, 3] was 52.5 ± 5.44 mmHg and the “Intraocular pressure (mmHg) at the time (min): 120, average ± S.D.” value (from here on “Intraocular pressure … 120, average ± S.D.”) [2, 3] was 55.7 ± 5.18 mmHg. For the same compound, the “Intraocular pressure (mmHg) at the time (min): 180, average ± S.D.” value (shortened to “Intraocular pressure … 180, average ± S.D.”) [2, 3] was 56.5 ± 6.60 mmHg, the “Intraocular pressure (mmHg) at the time (min): 240, average ± S.D.” value (“Intraocular pressure … 240, average ± S.D.” below) [2, 3] was 57.5 ± 6.55 mmHg and the “Intraocular pressure (mmHg) at the time (min): 0, average ± S.D.” value [2, 3] was 57.5 ± 6.13 mmHg. The “Intraocular pressure (mmHg) at the time (min): 30” value [2, 3] was 50 mmHg and 58 mmHg and 61 mmHg and 51 mmHg, the “Intraocular pressure (mmHg) at the time (min): 60” value [2, 3] was 48 mmHg and 55 mmHg and 59 mmHg and 49 mmHg and the “Intraocular pressure (mmHg) at the time (min): 90” value [2, 3] was 49 mmHg and 53 mmHg and 60 mmHg and 48 mmHg. For the same compound, the “Intraocular pressure (mmHg) at the time (min): 120” value [2, 3] was 51 mmHg and 58 mmHg and 62 mmHg and 52 mmHg, the “Intraocular pressure (mmHg) at the time (min): 180” value [2, 3] was 50 mmHg and 60 mmHg and 64 mmHg and 52 mmHg and the “Intraocular pressure (mmHg) at the time (min): 240” value [2, 3] was 52 mmHg (2×) and 61 mmHg and 65 mmHg. For the same compound, the “Intraocular pressure (mmHg) at the time (min): 0” value [2, 3] was 52 mmHg and 60 mmHg and 65 mmHg and 53 mmHg, the “Intraocular pressure … 30, average ± S.D.” value [2, 4] was 39.5 ± 7.32 mmHg and the “Intraocular pressure … 60, average ± S.D.” value [2, 4] was 37.7 ± 7.27 mmHg. The “Intraocular pressure … 90, average ± S.D.” value [2, 4] was 40.7 ± 7.63 mmHg, the “Intraocular pressure … 120, average ± S.D.” value [2, 4] was 42.2 ± 7.36 mmHg and the “Intraocular pressure … 180, average ± S.D.” value [2, 4] was 47.0 ± 8.28 mmHg. For the same compound, the “Intraocular pressure … 240, average ± S.D.” value [2, 4] was 47.2 ± 8.18 mmHg, the “Intraocular pressure (mmHg) at the time (min): 0, average ± S.D.” value [2, 4] was 47.7 ± 9.03 mmHg and the “Intraocular pressure (mmHg) at the time (min): 30” value [2, 4] was 47 mmHg and 38 mmHg and 30 mmHg and 43 mmHg. For the same compound, the “Intraocular pressure (mmHg) at the time (min): 60” value [2, 4] was 45 mmHg and 37 mmHg and 28 mmHg and 41 mmHg, the “Intraocular pressure (mmHg) at the time (min): 90” value [2, 4] was 50 mmHg and 38 mmHg and 32 mmHg and 43 mmHg and the “Intraocular pressure (mmHg) at the time (min): 120” value [2, 4] was 51 mmHg and 39 mmHg and 34 mmHg and 45 mmHg. The “Intraocular pressure (mmHg) at the time (min): 180” value [2, 4] was 56 mmHg and 44 mmHg and 37 mmHg and 51 mmHg, the “Intraocular pressure (mmHg) at the time (min): 240” value [2, 4] was 56 mmHg and 45 mmHg and 37 mmHg and 51 mmHg and the “Intraocular pressure (mmHg) at the time (min): 0” value [2, 4] was 57 mmHg and 46 mmHg and 36 mmHg and 52 mmHg. For the same compound, the “Intraocular pressure … 30, average ± S.D.” value [2, 5] was 42.2 ± 5.31 mmHg, the “Intraocular pressure … 60, average ± S.D.” value [2, 5] was 39.2 ± 4.57 mmHg and the “Intraocular pressure … 90, average ± S.D.” value [2, 5] was 43.0 ± 5.71 mmHg. For the same compound, the “Intraocular pressure … 120, average ± S.D.” value [2, 5] was 45.0 ± 5.71 mmHg, the “Intraocular pressure … 180, average ± S.D.” value [2, 5] was 48.5 ± 6.24 mmHg and the “Intraocular pressure … 240, average ± S.D.” value [2, 5] was 49.7 ± 5.73 mmHg. For the same compound, the “Intraocular pressure (mmHg) at the time (min): 0, average ± S.D.” value [2, 5] was 49.7 ± 6.6 mmHg, the “Intraocular pressure (mmHg) at the time (min): 30” value [2, 5] was 48 mmHg and 40 mmHg and 36 mmHg and 45 mmHg and the “Intraocular pressure (mmHg) at the time (min): 60” value [2, 5] was 45 mmHg and 38 mmHg and 34 mmHg and 40 mmHg. For the same compound, the “Intraocular pressure (mmHg) at the time (min): 90” value [2, 5] was 49 mmHg and 41 mmHg and 36 mmHg and 46 mmHg, the “Intraocular pressure (mmHg) at the time (min): 120” value [2, 5] was 51 mmHg and 43 mmHg and 38 mmHg and 48 mmHg and the “Intraocular pressure (mmHg) at the time (min): 180” value [2, 5] was 56 mmHg and 47 mmHg and 41 mmHg and 50 mmHg. The “Intraocular pressure (mmHg) at the time (min): 240” value [2, 5] was 57 mmHg and 49 mmHg and 43 mmHg and 50 mmHg and the “Intraocular pressure (mmHg) at the time (min): 0” value [2, 5] was 58 mmHg and 48 mmHg and 42 mmHg and 51 mmHg.

— patent US6380198B1 (Laboratoire Medidom S.A., priority 1997, dated 2002)
